# Data published in paper PMC9081605, “A High-Throughput Toxicity Screen of 42 Per- and Polyfluoroalkyl Substances (PFAS) and Functional Assessment of Migration and Gene Expression in Human Placental Trophoblast Cells” (Frontiers in Toxicology, 2022).
# Read-outs that look alike come from different tables or passages of the source.
# Assays:
# JEG-3 cells [1] = test: Mitochondrial membrane potential, JC-10 assay (HTTS); assay type: cell-based, human; conditions: for MMP ↓, lowest concentration at which the mean response value exceeded the mean control value ± 2*SD (rough binning): 24 h, decrease; for EC50: four-parameter fit, estimates meeting inclusion criteria; for MMP relative to vehicle control (rough binning): after 24 h, in at least one concentration
# Method in brief: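 JEG-3 cells seeded at 2,500 per well were exposed to PFAS for 24 h at 37 °C, with 2.5% methanol vehicle. After a PBS wash, 20 μM JC-10 was added for 1 h at 37 °C. Membrane potential was taken as the green (490/525 nm) to red (540/590 nm) fluorescence ratio.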
# JEG-3 cells [2] = test: Scratch wound migration assay; assay type: cell-based, human; conditions: for cellular migration relative to vehicle control: after 24 h of exposure, 25-200 µM; for significant effects on migration observed at 24 h, followed to 72 h: any concentration, by 72 h; for Migration, percent of wound closure: 100 µM, after 72 h
# Experimental: JEG-3 cells were cultured as described in Cell Culture section, and six PFAS were evaluated across an 8-point linear concentration curve ranging from 25 to 200 µM (25 µM steps): PFOA (335-67-1), GenX (62037-80-3), PFOS (1763-23-1), perfluorooctanesulfonamide (PFOSA, 754-91-6), perfluorooctanamide (PFOAA, 423-54-1), and perfluorononanoic acid (PFNA, 375-95-1). The vehicle control group consisted of 98% media + 2% methanol to match the concentration of methanol in the media at the highest PFAS concentration tested (200 µM). Cadmium chloride (25 µM) was used as a positive control for cytotoxicity ([Brooks and Fry, 2017]). Chemical exposure plate maps were designed so that all experimental conditions were tested in at least technical duplicates per plate. The outer edges of each plate received media alone and were excluded from all analyses to avoid edge effects. JEG-3 cells were counted and seeded at a density of 80,000 cells per well in black-walled, clear bottom 96-well plates (Corning #CLS3603, Millipore Sigma) and allowed to adhere and grow for 36 h. After approximately 36 h, 96-well plates were imaged on the IncuCyte Zoom to obtain cellular confluence measurements prior to chemical dosing (0 h). Media was then removed from wells and replaced with fresh serum-free media containing chemical treatments (serum-free exposure media) using the Viaflo liquid handling device. After 1 h of treatment with serum-free exposure media, plates were again imaged for cellular confluence using the IncuCyte Zoom. Serum-free exposure media was then removed from wells and wells were scratched by dragging a 200 µl pipette tip from top to bottom of each well, changing tips every well. Fresh media containing serum and chemical treatments (exposure media) was added to plates using a liquid handling device and allowed to grow for 72 h, with imaging via the IncuCyte Zoom every 6 h.
# Plate well bottom images were evaluated using automated cell masking as described in Proliferation section. Cell migration was calculated as the change in cellular confluence from the baseline measurement obtained immediately post-scratch to each subsequent time point (24, 48, and 72 h, post-scratch).
# Raw migration assay data exported from IncuCyte software were analyzed using GraphPad Prism 8.0 (GraphPad Software, San Diego, CA)). Prior to analysis, a minimum starting confluence value of 70% was set to ensure comparisons between samples were not skewed. Images with a starting confluence of less than 70% were excluded from analysis. Statistical analysis was performed using multiple unpaired t-tests to compare treated groups to the vehicle control followed by post hoc correction for multiple tests using the Bonferroni-Dunn method. Concentration-response analysis to determine migration assay EC50s was attempted but was not able to be modeled due to the non-linear nature of the concentration-response relationship for this endpoint.
# [3] = JEG-3 cells, 24 h exposure, read-out: MMP EC50 ± SD
# [4] = Homo sapiens, JEG-3, 24 h, read-out: MMP EC50 ± SD, JEG-3 cells, 24 h exposure
Structure (SMILES),"MMP ↓, lowest concentration at which the mean response value exceeded the mean control value ± 2*SD (rough binning) (JEG-3 cells [1]; JEG-3 cells)",EC50 (JEG-3 cells [1]; [3]),MMP relative to vehicle control (rough binning) (JEG-3 cells [1]),cellular migration relative to vehicle control (JEG-3 cells [2]),"significant effects on migration observed at 24 h, followed to 72 h (JEG-3 cells [2])","EC50 (JEG-3 cells [1]; JEG-3 cells, 24 h exposure, listed as PFOS, read-out: MMP EC50 ± SD)","Migration, percent of wound closure (JEG-3 cells [2])",EC50 (JEG-3 cells [1]; [4]),"minimal effective concentration (JEG-3 cells [1]; Homo sapiens, JEG-3, 24 h, read-out: MMP ↓, lowest concentration at which the mean response value exceeded the mean control value ± 2*SD (rough binning))"
O=C(O)C(F)(F)C(F)(F)C(F)(F)C(F)(F)C(F)(F)C(F)(F)C(F)(F)C(F)(F)F [Perfluorononanoic acid],300 µM,305 ± 13.6 µM,reduced MMP,significantly reduced,attenuated,,,,
O=S(=O)(O)C(F)(F)C(F)(F)C(F)(F)C(F)(F)C(F)(F)C(F)(F)C(F)(F)C(F)(F)F [Perfluorooctanesulfonic acid],350 µM,353 ± 6.7 µM,reduced MMP,significantly reduced,,353 µM,57%,,
O=C(O)C(F)(F)C(F)(F)C(F)(F)C(F)(F)C(F)(F)C(F)(F)C(F)(F)F [Perfluorooctanoic acid],,,reduced MMP,significantly reduced,attenuated,,72%,360 ± 18 µM,450 µM
NS(=O)(=O)C(F)(F)C(F)(F)C(F)(F)C(F)(F)C(F)(F)C(F)(F)C(F)(F)C(F)(F)F [Perfluorooctanesulfonamide],,,,significantly reduced,,,,227 ± 370 µM,
N.O=C(O)C(F)(OC(F)(F)C(F)(F)C(F)(F)F)C(F)(F)F (stereo not drawn) [Ammonium perfluoro-2-methyl-3-oxahexanoate],,,,significantly reduced,,,79%,,
